In the supplement of paper PMC4862054:

Columns and labels:
BT-474 = settings: 72 h
Summary of the method: (§1)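 For viability and cell death testing, 384-well plates carried compound at 5 concentrations in 10-fold steps over a compound-specific 10,000-fold range, and breast cancer cell lines were seeded in 20 µl suspension. After 72 h incubation, cell death was read by CellTox Green fluorescence (485/520 nm) before viability was read by CellTiter-Glo luminescence. EC50 was fitted from the dose-response curves and censored at the top concentration. Normalisation on each plate was to 0.1 % DMSO and a positive kill control.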

BT-549 = settings: 72 h
Summary of the method: as §1

CAL-120 = settings: 72 h
Summary of the method: as §1

CAL-148 [1] = settings: 72 h
Summary of the method: as §1

CAL-51 [2] = settings: 72 h
Summary of the method: as §1

CAL-85-1 [3] = settings: 72 h
Summary of the method: as §1

DU-4475 [4] = settings: 72 h
Summary of the method: as §1

HCC1143 = settings: 72 h
Summary of the method: as §1

HCC1599 = settings: 72 h
Summary of the method: as §1

HCC1937 = settings: 72 h
Summary of the method: as §1

HDQ-P1 [5] = settings: 72 h
Summary of the method: as §1

Hs578T = settings: 72 h
Summary of the method: as §1

MCF-10A = settings: 72 h
Summary of the method: as §1

MDA-MB-231 = settings: 72 h
Summary of the method: as §1

MDA-MB-436 = settings: 72 h
Summary of the method: as §1

MDA-MB-468 = settings: 72 h
Summary of the method: as §1

MFM-223 = settings: 72 h
Summary of the method: as §1

SK-BR-3 = settings: 72 h
Summary of the method: as §1

CAL-51 [6] = settings: 72 h; remark: listed apart in the source
Protocol: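 Drug sensitivity and resistance testing (DSRT) of breast cancer cell lines in 384-well plates, 5 concentrations in 10-fold dilutions over a compound-specific 10,000-fold range. After 72 h, cytotoxicity was read by CellTox Green fluorescence and viability by CellTiter-Glo luminescence (multiplexed), normalised to DMSO and benzethonium chloride controls. EC50 is the inflection point of the fitted dose-response curve (bottom asymptote free, so it can be relative for partial curves) and is censored at the highest tested concentration. Rows with DSS 0 (no meaningful response) were excluded.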

CAL-85-1 [7] = assay: drug sensitivity score (DSS), CellTiter-Glo (DSS (AUC-based score)); higher = stronger drug effect (viability inhibition or cytotoxicity); extreme values may be limits of the assay; settings: incubation time: 72 h
Summary of the method: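 Breast cancer cell lines, seeded as 20 µl suspension, were incubated 72 h with compound in 384-well plates at 5 concentrations in 10-fold steps over a 10,000-fold range set for each compound. Fluorescence from CellTox Green was read at 485/520 nm before CellTiter-Glo luminescence, which was read after 10 min at room temperature. Every plate was normalised to 0.1 % DMSO and a positive kill control, and the drug sensitivity score was taken from the area under the fitted dose-response curve.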

MDA-MB-453 [8] = settings: 72 h
Summary of the method: as §1

CAL-148 [9] = settings: 72 h; remark: listed apart in the source
Summary of the method: (§2)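 Rows with a drug sensitivity score of zero were dropped, and EC50 was taken from the fitted percent-inhibition dose-response curve, censored at the highest concentration. Data were normalised on each plate to vehicle and a positive kill control and checked by Z'-factor. The assay seeded breast cancer cell lines in 20 µl onto 384-well plates pre-loaded with compound in 5 µl medium for 72 h, then added 2.5 µl CellTiter-Blue for 2 h at 37 °C and read fluorescence at 560/590 nm.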

CAL-51 [10] = settings: 72 h; remark: listed apart in the source
Summary of the method: as §2

CAL-85-1 [11] = settings: 72 h; remark: listed apart in the source
Summary of the method: as §2

DU-4475 [12] = settings: 72 h; remark: listed apart in the source
Summary of the method: as §2

HDQ-P1 [13] = settings: 72 h; remark: listed apart in the source
Summary of the method: as §2

MDA-MB-453 [14] = settings: 72 h; remark: listed apart in the source
Summary of the method: as §2

Row | EC50, CellTiter-Glo (BT-474) | EC50, CellTiter-Glo (BT-549) | EC50, CellTiter-Glo (HCC1143) | EC50, CellTiter-Glo (HCC1599) | EC50, CellTiter-Glo (HCC1937) | EC50, CellTiter-Glo (MDA-MB-231) | EC50, CellTiter-Glo (MDA-MB-436) | EC50, CellTiter-Glo (MDA-MB-468) | EC50, CellTiter-Glo (SK-BR-3) | EC50, CellTiter-Glo (MDA-MB-453 [8]) | EC50, CellTiter-Blue viability (MDA-MB-453 [14]) | Structure (SMILES) | EC50, CellTiter-Glo (CAL-120) | EC50, CellTiter-Glo (CAL-148 [1]) | EC50, CellTiter-Glo (CAL-51 [2]) | EC50, CellTiter-Glo (CAL-85-1 [3]) | EC50, CellTiter-Glo (DU-4475 [4]) | EC50, CellTiter-Glo (HDQ-P1 [5]) | EC50, CellTiter-Glo (Hs578T) | EC50, CellTiter-Glo (MCF-10A) | EC50, CellTiter-Glo (MFM-223) | EC50, CellTox Green (CAL-51 [6]) | drug sensitivity score (CAL-85-1 [7]) | EC50, CellTiter-Blue viability (CAL-148 [9]) | EC50, CellTiter-Blue viability (CAL-51 [10]) | EC50, CellTiter-Blue viability (CAL-85-1 [11]) | EC50, CellTiter-Blue viability (DU-4475 [12]) | EC50, CellTiter-Blue viability (HDQ-P1 [13])
1 | 2430 nM | 3130 nM | 3640 nM | 4380 nM | 6520 nM | 1990 nM | 5620 nM | 1750 nM | 3190 nM | – | – | CN(c1ccccc1CNc1nc(Nc2ccc3c(c2)CC(=O)N3)ncc1C(F)(F)F)S(C)(=O)=O | 8760 nM | 1880 nM | 1110 nM | 2450 nM | 2130 nM | 1820 nM | 4360 nM | 1490 nM | 9400 nM | 201 nM | 6.85 | – | – | – | – | –
2 | 19.8 nM | 21.8 nM | 32.5 nM | 13.9 nM | 130 nM | 56.6 nM | 23.8 nM | 43 nM | 6.82 nM | 14.8 nM | 5.38 nM | COc1ncc(-c2ccc3nccc(-c4ccnnc4)c3c2)cc1NS(=O)(=O)c1ccc(F)cc1F | 27.6 nM | 76.8 nM | 34.7 nM | 15.8 nM | 228 nM | 14.2 nM | 37.6 nM | 12.9 nM | 16.2 nM | 91.7 nM | 16.4 | 27.6 nM | 12.6 nM | 27.2 nM | 113 nM | 6.71 nM
3 | 2050 nM | 1420 nM | 4150 nM | 2260 nM | – | 1770 nM | 2720 nM | 207 nM | 127 nM | – | 314 nM | C[C@@]1(C(=O)Nc2ccc(F)nc2)CCCN1c1nc(Nc2cc(C3CC3)n[nH]2)c2cccn2n1 | 1250 nM | – | 1060 nM | 467 nM | 4110 nM | 402 nM | 7980 nM | 21.6 nM | 1570 nM | 824 nM | 10.7 | 1170 nM | 1500 nM | 858 nM | 1510 nM | 293 nM
4 | – | – | – | – | – | – | – | 213 nM | – | – | – | Nc1nccc(-c2c(-c3ccc(F)cc3)ncn2C2CCCCC2)n1 | – | – | > 10000 nM | 9490 nM | – | – | – | 9770 nM | – | – | 0.583 | – | – | – | – | –
5 | > 100000 nM | – | – | – | – | – | – | – | – | – | – | CS(=O)(=O)OCCCCOS(C)(=O)=O [Busulfan] | – | – | – | – | – | – | – | – | – | – | 0 | – | – | – | – | –
6 | – | – | – | – | – | – | – | – | – | – | – | CN1CCN(c2ccc3nc(-c4c(N)c5c(F)cccc5[nH]c4=O)[nH]c3c2)CC1 [Dovitinib] | > 10000 nM | – | – | – | – | – | – | – | – | – | 0 | – | – | – | – | –
7 | 555 nM | – | – | 27 nM | 211 nM | 687 nM | 57.7 nM | 240 nM | 96.6 nM | – | 5880 nM | O=c1[nH]c(=O)n([C@H]2C[C@H](O)[C@@H](CO)O2)cc1F [Floxuridine] | 420 nM | – | 80.3 nM | 79.5 nM | 1580 nM | – | 34 nM | – | – | 734 nM | 17.5 | 19.8 nM | 46.9 nM | 66.3 nM | – | –
8 | – | – | – | – | – | – | 425 nM | – | 556 nM | – | 3900 nM | O=c1[nH]cc(F)c(=O)[nH]1 [Fluorouracil] | – | – | – | 272 nM | – | – | – | – | – | – | 8.63 | 944 nM | 5390 nM | 680 nM | 2570 nM | –
9 | – | 17700 nM | – | – | – | – | – | 7120 nM | – | – | 7210 nM | C[C@@H]1C=C2C(=O)O[C@@H]3CC[C@H](C1)[C@]23O [Galiellalactone] | – | – | 2320 nM | 10500 nM | – | – | – | – | – | – | 1.79 | 16100 nM | 48900 nM | 6900 nM | – | 39400 nM
10 | – | – | – | – | – | – | – | – | 49.8 nM | – | 75.1 nM | CS(=O)(=O)CCNCc1ccc(-c2ccc3ncnc(Nc4ccc(OCc5cccc(F)c5)c(Cl)c4)c3c2)o1 [Lapatinib] | – | – | – | 304 nM | – | 359 nM | – | 504 nM | – | – | 1.7 | – | – | 3740 nM | – | –
11 | 113 nM | – | – | – | – | – | – | – | – | – | – | Cn1cnc2c(F)c(Nc3ccc(Br)cc3F)c(C(=O)NOCCO)cc21 [MEK-162] | > 1000 nM | – | – | – | 78.7 nM | 13.5 nM | – | 11.8 nM | – | – | 0 | – | – | – | 38.9 nM | –
12 | – | – | – | – | – | – | – | 539 nM | 2.49 nM | 7.56 nM | 12.5 nM | CCOc1cc2ncc(C#N)c(Nc3ccc(OCc4ccccn4)c(Cl)c3)c2cc1NC(=O)/C=C/CN(C)C [Neratinib] | 412 nM | 95.2 nM | 926 nM | 91.2 nM | – | 309 nM | – | 57.8 nM | 692 nM | – | 7.08 | – | – | – | – | –
13 | – | – | – | – | – | – | – | – | – | 7190 nM | – | COc1ccc(C2=N[C@@H](c3ccc(Cl)cc3)[C@@H](c3ccc(Cl)cc3)N2C(=O)N2CCNC(=O)C2)c(OC(C)C)c1 [Nutlin-3] | – | 7030 nM | 17.6 nM | – | 2950 nM | – | – | – | – | 252 nM | 0 | – | 2750 nM | – | 6310 nM | –
